Reference: patent US3941842A, “P,P'-Disubstituted α-trichloromethylbenzylanilines” (priority 1972, dated 1976)
“And” between values parts separate entries of the source, which are not always exact repeats. Identical values can stand only once.

Columns and labels:
Musca domestica Rsp = test: Topical LD50 to adult female RSP houseflies; conditions: for LD50: Musca domestica, read-out: Topical LD50, Musca domestica Rsp, Alone; for LD50 / Topical LD50, Musca domestica Rsp, with pb: topical; for Topical LD50, Musca domestica Rsp, with pb: RSP strain, synergized with piperonyl butoxide; for SR, Musca domestica Rsp: synergistic ratio: LD50 alone/LD50 synergized with piperonyl butoxide
Protocol: (§1) The compounds of the present invention were tested for insecticidal activity by standard methods, and compared with the insecticidal activities of DDT and symmetrical analogs of DDT, such methoxychlor. Toxicological methods for the determination of the topical LD50 values to adult female SNAIDM and RSP houseflies, Musca domestica L. and to Phormia regina, and LC50 values to Culex pipiens quinquefasciatus Say, and Anopheles albimanus Weid mosquitoes were described by Metcalf el al., 44 Bull. World Health Org. 363 (1971). The methods for evaluation of metabolism by mouse liver homogenate and by female RSP housefly and salt-marsh caterpillar larvae Estigmene acrea Drury, were described by Kapoor et al., 18 J. Agr. Food Chem. 1145 (1970). The techniques for model eocsystem evluation were described by Metcalf et al., 5 J. Environ. Sci. Tech. 709 (1971).
(§2) Since piperonyl butoxide serves to block the action of MFO, the synergized LD50 values express the intrinsic toxicity of the compounds. With the detoxifying action of MFO enzymes blocked, the intrinsic toxicity of the compounds can thus be measured.

Culex fatigans larvae = test: LC50 to Culex fatigans larvae; type: in vivo, Culex pipiens quinquefasciatus Say
Source text: (§3) World Health Org. 363 (1971). […] Food Chem. 1145 (1970). […] Sci. Tech. 709 (1971). The results are detailed in Table II. ##SPC1##

[1] = tested on: Anopheles albimanus larvae; test: LC50 to Anopheles albimanus larvae; type: in vivo, Anopheles albimanus Weid
Source text: as §3

Phormia regina = test: whole plant or invertebrate; conditions: for LD50: Phormia regina, read-out: Topical LD50, Phormia regina, Alone; for LD50 / Topical LD50, Phormia regina, with pb: topical; for Topical LD50, Phormia regina, with pb: synergized with piperonyl butoxide; for SR, Phormia regina: synergistic ratio: LD50 alone/LD50 synergized with piperonyl butoxide
Protocol: as §1, with “363 (1971).” left out, “Food Chem. 1145 (1970).” left out, “Tech.” for “Tech. 709 (1971).”
as §2

[2] = tested on: Musca domestica (SNAIDM and RSP strains), Phormia regina, Culex fatigans and Anopheles albimanus; test: Insecticidal activity over the test insects (Table II, summarised in words); type: in vivo; conditions: for insecticidal effectiveness / toxicity (in words): overall, test insects of Table II
Protocol: as §1, §2

Musca domestica Snaidm = test: Topical LD50 to adult female SNAIDM houseflies; conditions: for LD50: Musca domestica, read-out: Topical LD50, Musca domestica Snaidm, Alone; for LD50 / Topical LD50, Musca domestica Snaidm, with pb: topical; for Topical LD50, Musca domestica Snaidm, with pb: SNAIDM strain, synergized with piperonyl butoxide; for SR, Musca domestica Snaidm: synergistic ratio: LD50 alone/LD50 synergized with piperonyl butoxide
Protocol: as §1, §2

| SMILES | LD50 (Musca domestica Rsp) | Topical LD50, Musca domestica Rsp, with pb (Musca domestica Rsp) | SR, Musca domestica Rsp (Musca domestica Rsp) | LC50 Culex fatigans larvae (Culex fatigans larvae) | LC50 Anopheles albimanus larvae [1] | LD50 (Phormia regina) | Topical LD50, Phormia regina, with pb (Phormia regina) | insecticidal effectiveness / toxicity (in words) [2] | LD50 (Musca domestica Snaidm) | Topical LD50, Musca domestica Snaidm, with pb (Musca domestica Snaidm) | SR, Musca domestica Snaidm (Musca domestica Snaidm) | synergism in Phormia (in words) (Phormia regina; with piperonyl butoxide) | SR, Phormia regina (Phormia regina) | SR values (in words) ([2]; synergism by piperonyl butoxide) | toxicity to adult insects (in words) ([2]; adult insects) | larvicidal effectiveness (in words) ([2]; mosquito larvae) |
| --- | --- | --- | --- | --- | --- | --- | --- | --- | --- | --- | --- | --- | --- | --- | --- | --- |
| CCCCOc1ccc(C(Nc2ccc(OC)cc2)C(Cl)(Cl)Cl)cc1 (stereo not shown) [XVIII] | 230 mg/kg | 32.0 μg per g | 7.2 | 0.60 ppm | 0.77 ppm | > 250 mg/kg | 67.5 μg per g | Toxicity was also substantially decreased | 370 mg/kg | 12.5 μg per g | 30 |  |  |  |  |  |
| COc1ccc(NC(c2ccc(OC)cc2)C(Cl)(Cl)Cl)cc1 (stereo not shown) [Compound II] | 500 mg/kg | 13.5 μg per g | 37 and > 37 | > 1.0 ppm | 0.64 ppm | 118 mg/kg | 35.0 μg per g | very low toxicity | > 500 mg/kg | 5.5 μg per g | 100 and > 100 | substantially synergized in Phormia |  |  |  |  |
| COc1ccc(NC(c2ccc(C)cc2)C(Cl)(Cl)Cl)cc1 (stereo not shown) [Compound X] | 65 mg/kg | 7.5 μg per g | 8.7 | 0.54 ppm | 0.48 ppm | 135 mg/kg | 14.0 μg per g |  | 48 mg/kg | 8.5 μg per g | 5.6 |  | 9.6 | higher SR values |  |  |
| COc1ccc(C(Nc2ccc(C)cc2C)C(Cl)(Cl)Cl)cc1 (stereo not shown) [XXIV] | 140 mg/kg | 29.0 μg per g | 4.8 | 0.28 ppm | 0.080 ppm | 97.5 mg/kg | 25.0 μg per g | Toxicity was also substantially decreased | 95 mg/kg | 14.0 μg per g | 6.8 |  |  |  |  |  |
| CCOc1ccc(C(Nc2ccccc2OCC)C(Cl)(Cl)Cl)c(OCC)c1 (stereo not shown) [XXII] | > 500 mg/kg | 500 μg per g |  | > 1.0 ppm | > 1.0 ppm | > 250 mg/kg | > 250 μg per g | Toxicity was also substantially decreased | > 500 mg/kg | 500 μg per g |  |  |  |  |  |  |
| Clc1ccc(NC(c2ccc(Cl)cc2)C(Cl)(Cl)Cl)cc1 (stereo not shown) [Compound I] | 220 mg/kg | 25 μg per g | 8.8 | 0.026 ppm | 0.090 ppm | > 250 mg/kg | 42.5 μg per g |  | 115 mg/kg | 13.5 μg per g | 8.5 |  | > 5.5 |  | low toxicity to adult insects | very effective larvicide |
| CCOc1ccc(NC(c2ccccc2)C(Cl)(Cl)Cl)cc1 (stereo not shown) [XIX] | > 500 mg/kg | 120 μg per g | > 4 | > 1.0 ppm | 0.61 ppm | > 250 mg/kg | > 250 μg per g | Toxicity was greatly decreased | > 500 mg/kg | 31.0 μg per g | > 16 |  |  |  |  |  |
| COc1ccc(C(Nc2ccc(C)c(C)c2)C(Cl)(Cl)Cl)cc1 (stereo not shown) [XXIII] | 100 mg/kg | 28.0 μg per g | 3.6 | 0.30 ppm | 0.18 ppm | 77.5 mg/kg | 15.5 μg per g | Toxicity was also substantially decreased | 85 mg/kg | 6.5 μg per g | 13.0 |  |  |  |  |  |
| COc1ccc(C(Nc2ccc(C3CCCCC3)cc2)C(Cl)(Cl)Cl)cc1 (stereo not shown) [XXVII] | > 500 mg/kg | 165 μg per g | > 3 | 1.0 ppm | > 1.0 ppm | > 250 mg/kg | 112.5 μg per g | Toxicity was also substantially decreased | > 500 mg/kg | 48 μg per g | > 10 |  |  |  |  |  |
| COc1ccc(C(Nc2ccc(Cl)cc2)C(Cl)(Cl)Cl)cc1 (stereo not shown) [V] | 35.5 mg/kg | 12.0 μg per g | 3.0 | 0.068 ppm | 0.12 ppm | 55 mg/kg | 15.2 μg per g |  | 23 mg/kg | 10.5 μg per g | 2.2 |  | 3.6 |  |  |  |
